Drawing on PMC8646019, “Azvudine is a thymus-homing anti-SARS-CoV-2 drug effective in treating COVID-19 patients” (Signal Transduction and Targeted Therapy, 2021), this text covers concentration for one compound.

This data set in a line: Biodistribution and metabolism of FNC in rats (UHPLC-MS/MS). The conditions noted are these: male, Sprague-Dawley, in vivo, rat, FNC 5 mg/kg oral, average n=5, read-out: Concentration in kidney. Here is the method: Fig. 2 Thymus-homing distribution and metabolism of FNC after oral administration in rats. Twenty-five male Sprague–Dawley rats were orally administered with FNC at a single dose of 5 mg/kg. At the time point of 1, 2, 6, 12, and 24 h after drug administration, 5 rats were dissected. The blood, as well as the heart, liver, spleen, lung, kidney, brain, thymus, testis, and epididymis, were collected. Peripheral blood mononuclear cells (PBMCs) were isolated from blood using Histopaque-1083. The distribution of FNC in plasma, PBMCs, and the different tissues was evaluated through UHPLC–MS/MS analysis performed on an UHPLC system (1290 series, Agilent Technologies, USA) coupled to a triple quadrupole mass spectrometer (Agilent 6470 QQQ). a Metabolic pathway of FNC. b FNC distribution in tissues and plasma (5 mg/kg, oral). c FNC-TP levels in the blood (5 mg/kg, oral). d FNC-TP levels in tissues (5 mg/kg, oral). e FNC and its phosphate metabolites (FNC-MP, FNC-DP, and FNC-TP) in the thymus (5 mg/kg). f FNC and its phosphate metabolites in PBMCs (5 mg/kg).
25 male Sprague-Dawley rats (200 ± 15 g) were purchased from Vital River Laboratories Co., LTD (Beijng, China). The animals were housed under specific pathogen-free conditions (12 h light/12 h dark photoperiod, 25 ± 2°C, 50±5% relative humidity). All rats were allowed to acclimate for 1 week before experiments. Research was conducted in accordance with all institutional guidelines and ethics and approved by the Laboratories Institutional Animal Care and Use Committee of the Chinese Academy of Medical Sciences and Peking Union Medical College.
Rats were divided randomly into five groups with five rats in each, and were administered with azvudine at a single dose of 5 mg/kg. At the time point of 1h, 2h, 6h, 12h and 24h after drug administration, rats in one group were dissected with euthanization and blood samples were collected using heparin as an anticoagulant. 0.5 ml of blood was transferred to another 1.5ml eppendorf tube to obtain plasma by centrifugation (3500 r/min ×15 min). The tissues, including heart, liver, spleen, lung, kidney, brain, thymus, testis, and epididymis, were collected, and washed with cold 0.9% normal saline, and then kept at -80°C until analysis.
Peripheral blood mononuclear cells (PBMCs) were isolated from blood using Histopaque-1083 according to the manufacturer’s protocol. Firstly, 2 mL of blood collected in heparin sodium tube was diluted with 2 mL of PBS solution. Then, 4mL of diluted blood was layered on top of 4 mL Histopaque-1083 and centrifuged for 30 min at 2000 r/min. PBMCs were then aspirated, washed twice with PBS solution, suspended in PBS, and counted with a hemocytometer. Furtherly, PBMCs were centrifuged (2000 r/min ×10 min), lysed with 1ml of cold 80% methanol for 12h, then ultrasonic for cell disruption (3min). Finally, the cell lysates were stored in -80°C until sample preparation.
Tissue samples were weighed and 2-fold volume of 0.9% saline containing phosphatase inhibitor was added to prepare the homogenate on the ice. Then tissue homogenate was ultrasonic extracted for 5 min in the ice bath. 200μL of plasma or tissue homogenate was transferred into a 1.5 ml eppendorf tube and added 600 μL of methanol solution with internal standards. The sample was vortexed for 5 min and kept at 4°C for 15min, then centrifuged at 13000r/min for 10 min (4°C). […]

`[N-]=[N+]=N[C@]1(CO)O[C@@H](n2ccc(N)nc2=O)[C@@H](F)[C@@H]1O` [FNC, 2′-deoxy-2′-β-fluoro-4′-azidocytidine]: for the setting “1 h”, the concentration at 1 h was 515 ng/g. In addition, the concentration at 2 h (2 h) amounted to 798 ng/g. Further, the concentration at 6 h (6 h) turned out to be 269 ng/g. For the same compound, where the note is “12 h”, the concentration at 12 h came out at 76.5 ng/g. In addition, the concentration at 24 h (24 h) came out at 78.1 ng/g.
